From patent US20260191875A1, “FUSED AMINO PYRIMIDINE COMPOUNDS FOR TREATMENT OF ADDICTION AND INSOMNIA” (Ovid Therapeutics Inc., priority 2024, published 2026)
Numbering of substitutions follows the chain as printed.

Key:
[1] = biological target: T1, KCC2-S940A (Homo sapiens, UniProt Q9H2X9, S963A); assay: Tl+ flux assay, HEK-293 cells expressing KCC2-S940A; format: cell-based
T1 construct: expressed in transfected cells; host or cells: HEK-293
T1 sequence (Q9H2X9 1-1116 isoform Q9H2X9-2 S940A): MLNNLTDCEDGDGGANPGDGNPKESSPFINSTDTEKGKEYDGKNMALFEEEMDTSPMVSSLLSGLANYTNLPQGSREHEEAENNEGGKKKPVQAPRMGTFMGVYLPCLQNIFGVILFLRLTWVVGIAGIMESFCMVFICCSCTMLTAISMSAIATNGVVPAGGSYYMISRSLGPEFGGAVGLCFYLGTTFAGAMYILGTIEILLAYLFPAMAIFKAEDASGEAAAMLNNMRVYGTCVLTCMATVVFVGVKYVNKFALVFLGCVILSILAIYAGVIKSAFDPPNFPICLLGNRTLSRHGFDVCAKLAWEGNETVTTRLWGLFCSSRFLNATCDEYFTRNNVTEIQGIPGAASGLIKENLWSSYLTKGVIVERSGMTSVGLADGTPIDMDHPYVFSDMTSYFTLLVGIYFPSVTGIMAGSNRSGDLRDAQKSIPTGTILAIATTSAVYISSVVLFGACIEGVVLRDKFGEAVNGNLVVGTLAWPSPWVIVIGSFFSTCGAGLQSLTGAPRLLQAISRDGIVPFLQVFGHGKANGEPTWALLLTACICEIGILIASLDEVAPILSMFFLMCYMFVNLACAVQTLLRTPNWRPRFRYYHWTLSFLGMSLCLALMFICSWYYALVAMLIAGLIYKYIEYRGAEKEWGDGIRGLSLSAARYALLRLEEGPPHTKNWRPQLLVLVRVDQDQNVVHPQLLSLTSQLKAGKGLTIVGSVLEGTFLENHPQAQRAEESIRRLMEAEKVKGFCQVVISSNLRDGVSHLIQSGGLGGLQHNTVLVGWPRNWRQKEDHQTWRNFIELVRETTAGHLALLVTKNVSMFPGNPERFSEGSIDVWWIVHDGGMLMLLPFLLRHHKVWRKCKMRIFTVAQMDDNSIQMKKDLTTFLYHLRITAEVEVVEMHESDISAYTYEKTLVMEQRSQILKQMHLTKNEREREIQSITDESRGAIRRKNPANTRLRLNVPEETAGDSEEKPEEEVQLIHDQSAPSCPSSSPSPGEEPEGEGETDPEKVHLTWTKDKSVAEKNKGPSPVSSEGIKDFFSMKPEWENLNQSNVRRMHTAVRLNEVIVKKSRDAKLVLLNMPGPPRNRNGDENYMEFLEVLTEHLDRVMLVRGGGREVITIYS
Method: FLIPR TI Flux assay. HEK-293 cells were washed with HBSS, and then incubated with loading buffer containing TI sensitive fluorescent dye (https://www.moleculardevices.com), 20 μM bumetanide 20 μM ouabain and 2.5 mM probenecid for 1 h at room temperature (RT) under control conditions or with drugs in the dark using a FlexStation 3 microplate reader (Molecular Devices) and imaged […] for 30 min. Stimulus buffer was added containing 5 mM K^+/0.5 mM Tl^+ and cells were imaged every 1.5 over a 190 second time course The initial rate Tl^+ uptake (Relative Fluorescence Units (RFU) per second) was determined following addition of the stimulus buffer as outlined previously (Conway et al., 2017, supra) (Lee et al., 2022, supra).
Several studies have shown that the activity and plasma membrane accumulation of KCC2 is potentiated via phosphorylation of S940, a process mediated by the activity of protein kinase C and protein phosphatase 1 (Lee et al., 2011, supra, Lee et al., J Biol Chem 282, 29777-29784 (2007); Moore et al., Proc. Natl. Acad. Sci. U.S.A 115, 10166-10171 (2018); Moore et al., Trends Neurosci. 40, 555-571 (2017); Silayeva et al., Proc. Natl. Acad. Sci. U.S.A 112, 3523-3528 (2015)). […] Compared to KCC2, effects on KCC3, KCC4, and NKCC1 were only seen at concentrations more than 35-fold that of KCC2 (>100 μM) (FIG. 1G).

[2] = system: panel of 144 protein kinases; assay: panel of 144 protein kinases (SelectScreen; Thermofisher); format: biochemical; conditions: 144 protein kinases incl. PKC isoforms, OSR1, SPAK, WNK
[3] = biological target: T2, KCC2 (Homo sapiens, UniProt Q9H2X9); assay: cellular thermal shift assay (CETSA), HEK-293 cells expressing KCC2; format: binding
T2 construct: expressed in transfected cells; host or cells: HEK-293 (ATCC CRL-1573), transient transfection
T2 sequence (Q9H2X9 1-1116 isoform Q9H2X9-2): T1 sequence (Q9H2X9 1-1116 isoform Q9H2X9-2 S940A) with A940S
Method: Determining if compounds in SSA directly interact with KCC2. This was tested using a cellular thermal shift assay (CETSA), which measures the ability of a drug to modify the thermal stability of its target in whole cells (Kawatkar et al., ACS Chem. Biol. 14, 1913-1920 (2019); Martinez et al., Sci Rep 8, 9472 (2018)).
2×10^6 transfected HEK-293 cells were incubated with 30 μM drug or vehicle for 90 min at 37° C. and then heated from 37-58° C. for 5 min. Cells were rapidly chilled to 25° C. and NP40 was added to a final concentration […] to snap freezing in liquid nitrogen. Following 5 freeze/thaw cycles lysates were centrifuged at 12,000×g to remove denatured proteins and associated cell debris.
Aliquots of HEK-293 cells expressing KCC2 were exposed to 30 μM SSA, heated from 37-55° C. The remaining level of soluble native KCC2 at each temperature was measured by immunoblotting and normalized to the level seen at 37° C. which was given a value of 1. […] This panel included protein kinase C isoforms, OSR1, SPAK (STK39) and with-no-lysine kinases (WNK), all of which phosphorylate KCC2 on multiple residues to indirectly modify its activity (Kahle et al., 2013, supra; Smalley et al., 2020, supra).

[4] = set-up: species or system Mice; conditions: in vivo
[5] = system: acute brain slices exposed to 0-Mg; assay: late recurrent discharges in acute brain slices exposed to 0-Mg
[6] = PK studies, brain and plasma levels by LC-MS/MS; format: in vivo, Mice; conditions: 50 mg/kg SC
Method: PK studies. […] Plasma and brain samples were rapidly frozen on dry ice.
Drug accumulation in the brain was examined following SC injection (FIG. 4C; 50 mg/kg).

[7] = system: neuronal cell death in the hippocampus; assay: neuronal cell death in the hippocampus, mice treated with Compound A and diazepam; format: in vivo; conditions: Compound A and diazepam vs diazepam alone

- activity of KCC2-S940A construct [1]: increased the activity
- activity of kinase panel [2]: did not modify the activity
- direct binding to KCC2 [3]: capable of directly binding to KCC2
- gross effects on mouse behavior [4]: no gross effects on mouse behavior
- accumulation in the brain at 30 min [6]: detected
- brain level 8 h later [6]: maintained
- time of maximal concentration in the brain [6]: 4 h
SMILES: C[C@@H]1CN(c2nc3c(c(Nc4ccc(C5CCCCC5)cc4)n2)COC3)CCO1 [Compound A, (R)—N-(4-cyclohexylphenyl)-2-(2-methylmorpholino)-5,7-dihydrofuro[3,4-d]pyrimidin-4-amine]
- development of late recurrent discharges (LRDs) [5]: reduced
- neuronal cell death in the hippocampus [7]: significantly reduced
